Data set [1] deals with HIV-IIIb. Description: Test A: Antiviral assay in MT4 cells. In kind it is cell-based, HIV-1. The following applies: MT-4 cells infected with HIV-IIIb, 5 days, CellTiter-Glo; for inhibition at 2 µM: Human immunodeficiency virus 1, IIIB, MT4, 120 h, read-out: % inhibition at 2 μM, percent inhibition of virus-induced cell killing, from dose response curve at 2 uM drug. In general terms: ATP-based viability assays read luminescence as a measure of living cells.

Data set [2] is described as follows: in vitro. The following applies: human, uninfected MT-4 cells, CC50 (nM), same protocol as Test A, CellTiter-Glo. Summed up: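 Cytoprotection read-out: CellTiter-Glo chemiluminescence after 5 days at 37 °C of HIV-IIIb-infected MT-4 cells (m.o.i. 0.003) with compound in 10-point 3-fold dilutions, quadruplicate, 10% FBS. Cytotoxicity (CC50) measured identically without virus.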

Each structure is given as a SMILES string.

Regarding `CC(C)(C)OC(=O)N1C(=O)CC[C@H]1C(=O)N[C@@H](Cc1cc(F)cc(F)c1)c1ncccc1-c1ccc(F)c(C(N)=O)c1` [Example 140, (S)-tert-butyl 2-((S)-1-(3-(3-carbamoyl-4-fluorophenyl)pyridin-2-yl)-2-(3,5-difluorophenyl)ethylcarbamoyl)-5-oxopyrrolidine-1-carboxylate], the inhibition at 2 µM in data set [1] is 0%. Also, the CC50 at 5 days in data set [2] is above 53000 nM.

For the molecule `NC(=O)c1cc(-c2cccnc2[C@H](Cc2cc(F)cc(F)c2)NC(=O)Cc2n[nH]c3ccc(C(F)(F)F)cc23)ccc1F` [Example 141G, (S)-5-(2-(2-(3,5-difluorophenyl)-1-(2-(5-(trifluoromethyl)-1H-indazol-3-yl)acetamido)ethyl)pyridin-3-yl)-2-fluorobenzamide], the inhibition at 2 µM in data set [1] turned out to be 4%. The same molecule came in with a CC50 at 5 days in data set [2] of 21800 nM.

Consider `NC(=O)c1cc(-c2cccnc2[C@H](Cc2cc(F)cc(F)c2)NC(=O)Cn2nc(OCc3ncccn3)c3c2CCCC3)ccc1F` [Example 142C, (S)-5-(2-(2-(3,5-difluorophenyl)-1-(2-(3-(pyrimidin-2-ylmethoxy)-4,5,6,7-tetrahydro-1H-indazol-1-yl)acetamido)ethyl)pyridin-3-yl)-2-fluorobenzamide], for which the inhibition at 2 µM in data set [1] worked out at 23%. In data set [2], this molecule had a CC50 at 5 days above 53200 nM.

For the molecule `NC(=O)c1cc(-c2cccnc2[C@H](Cc2cc(F)cc(F)c2)NC(=O)Cn2nc3c(c2C(F)(F)OCc2ccccn2)CCCC3)ccc1F` [Example 143, (S)-5-(2-(1-(2-(3-(difluoro(pyridin-2-ylmethoxy)methyl)-4,5,6,7-tetrahydro-2H-indazol-2-yl)acetamido)-2-(3,5-difluorophenyl)ethyl)pyridin-3-yl)-2-fluorobenzamide], the inhibition at 2 µM in data set [1] turned out to be 10%. The molecule further returned a CC50 at 5 days in data set [2] of 19900 nM.

With `NC(=O)c1cccc(-c2cccnc2[C@H](Cc2cc(F)cc(F)c2)NC(=O)Cn2nc(C(F)(F)F)c3c2COCC3)c1` [Example 144, (S)-3-(2-(2-(3,5-difluorophenyl)-1-(2-(3-(trifluoromethyl)-4,5-dihydropyrano[3,4-c]pyrazol-1(7H)-yl)acetamido)ethyl)pyridin-3-yl)benzamide], in data set [1], the inhibition at 2 µM stood at 89%. Also, the CC50 at 5 days in data set [2] was above 53000 nM.

Take `CC(C)(C)OC(=O)N1C[C@H](OCc2ccccc2)C[C@H]1C(=O)N[C@@H](Cc1cc(F)cc(F)c1)c1ncccc1-c1ccc(F)c(C(N)=O)c1` [Example 145, (2S,4R)-tert-butyl 4-(benzyloxy)-2-((S)-1-(3-(3-carbamoyl-4-fluorophenyl)pyridin-2-yl)-2-(3,5-difluorophenyl)ethylcarbamoyl)pyrrolidine-1-carboxylate]: in data set [1], the inhibition at 2 µM turned out to be 0%. Further, in data set [2], it took 22400 nM to reach half-maximal cytotoxicity (CC50 at 5 days).

Turning to `O=C(Cn1[nH]c(=O)c2c1CCCC2)N[C@@H](Cc1cc(F)cc(F)c1)c1ncccc1-c1ccc(Cl)cc1` [Example 146, (S)—N-(1-(3-(4-chlorophenyl)pyridin-2-yl)-2-(3,5-difluorophenyl)ethyl)-2-(3-oxo-2,3,4,5,6,7-hexahydro-1H-indazol-1-yl)acetamide], the inhibition at 2 µM in data set [1] was 66%. Moreover, the CC50 at 5 days in data set [2] amounted to 20600 nM.

For the molecule `NC(=O)c1cc(-c2cccnc2[C@H](Cc2cc(F)cc(F)c2)NC(=O)Cn2nc(-n3cccn3)ccc2=O)ccc1F` [Example 147, (S)-5-(2-(2-(3,5-difluorophenyl)-1-(2-(6-oxo-3-(1H-pyrazol-1-yl)pyridazin-1(6H)-yl)acetamido)ethyl)pyridin-3-yl)-2-fluorobenzamide], the inhibition at 2 µM in data set [1] was determined as 10%. In addition, in data set [2], the CC50 at 5 days is above 53200 nM.

As to `CC(C)(C)OC(=O)N1C[C@@H](c2ccccc2)C[C@H]1C(=O)N[C@@H](Cc1cc(F)cc(F)c1)c1ncccc1-c1ccc(F)c(C(N)=O)c1` [Example 148, (2S,4R)-tert-butyl 2-((S)-1-(3-(3-carbamoyl-4-fluorophenyl)pyridin-2-yl)-2-(3,5-difluorophenyl)ethylcarbamoyl)-4-phenylpyrrolidine-1-carboxylate], in data set [1], the inhibition at 2 µM was 11%. The midpoint of cytotoxicity in data set [2], the CC50 at 5 days, lay at 12300 nM.

As for `NC(=O)c1cc(-c2cccnc2[C@H](Cc2cc(F)cc(F)c2)NC(=O)Cn2ccnc2-c2ccccc2)ccc1F` [Example 149, (S)-5-(2-(2-(3,5-difluorophenyl)-1-(2-(2-phenyl-1H-imidazol-1-yl)acetamido)ethyl)pyridin-3-yl)-2-fluorobenzamide], the inhibition at 2 µM in data set [1] is 2%. The same molecule showed a CC50 at 5 days in data set [2] above 53200 nM.

On to `NC(=O)c1cc(-c2cccnc2[C@H](Cc2cc(F)cc(F)c2)NC(=O)Cn2nc(C(F)(F)F)c3c2CCC(F)(F)C3)ccc1F` [Example 150, (S)-5-(2-(1-(2-(5,5-difluoro-3-(trifluoromethyl)-4,5,6,7-tetrahydro-1H-indazol-1-yl)acetamido)-2-(3,5-difluorophenyl)ethyl)pyridin-3-yl)-2-fluorobenzamide], for which the inhibition at 2 µM in data set [1] was found to be 15%. The cytotoxic concentration (CC50) at 5 days in data set [2] is 18400 nM.

`NC(=O)c1cc(-c2cccnc2[C@H](Cc2cc(F)cc(F)c2)NC(=O)Cn2nc3c(c2C(F)(F)F)CCC3)ccc1F` [Example 151E, (S)-5-(2-(2-(3,5-difluorophenyl)-1-(2-(3-(trifluoromethyl)-5,6-dihydrocyclopenta[c]pyrazol-2(4H)-yl)acetamido)ethyl)pyridin-3-yl)-2-fluorobenzamide]: the inhibition at 2 µM in data set [1] is 11%. This molecule also yielded a CC50 at 5 days in data set [2] of 20300 nM.

For `NC(=O)c1cc(-c2cccnc2[C@H](Cc2cc(F)cc(F)c2)NC(=O)Cc2nc3cccc4c3n2CCC4)ccc1F` [Example 152D, (S)-5-(2-(2-(3,5-difluorophenyl)-1-(2-(5,6-dihydro-4H-imidazo[4,5,1-ij]quinolin-2-yl)acetamido)ethyl)pyridin-3-yl)-2-fluorobenzamide], in data set [1], the inhibition at 2 µM stood at 81%. This molecule came in with a CC50 at 5 days in data set [2] of 28400 nM.

For `NC(=O)c1cc(-c2cccnc2[C@H](Cc2cc(F)cc(F)c2)NC(=O)C2CCCN2C(=O)C2CCCC2)ccc1F` (stereo partly drawn) [Example 153, N—((S)-1-(3-(3-carbamoyl-4-fluorophenyl)pyridin-2-yl)-2-(3,5-difluorophenyl)ethyl)-1-(cyclopentanecarbonyl)pyrrolidine-2-carboxamide], in data set [1], the inhibition at 2 µM came to 10%. In data set [2], this molecule had a CC50 at 5 days of 17300 nM.

Regarding `NC(=O)c1cc(-c2cccnc2[C@H](Cc2cc(F)cc(F)c2)NC(=O)Cn2nc(C(F)(F)F)c3c2C(O)C2CC32)ccc1F` (stereo partly drawn) [Example 154, 5-(2-((1S)-2-(3,5-difluorophenyl)-1-(2-(5-hydroxy-3-(trifluoromethyl)-3b,4,4a,5-tetrahydro-1H-cyclopropa[3,4]cyclopenta[1,2-c]pyrazol-1-yl)acetamido)ethyl)pyridin-3-yl)-2-fluorobenzamide], in data set [1] (percent inhibition of virus-induced cell killing, from dose response curve at 2 uM drug), the “% inhibition at 2 μM” value is 90%. Further, the half-maximal cytotoxic concentration (CC50) at 5 days in data set [2] is 36800 nM.

As to `NC(=O)c1cc(-c2cccnc2[C@H](Cc2cc(F)cc(F)c2)NC(=O)[C@@H]2C[C@@H](OCc3ccccc3)CN2)ccc1F` [Example 157, (2S,4R)-4-(benzyloxy)-N—((S)-1-(3-(3-carbamoyl-4-fluorophenyl)pyridin-2-yl)-2-(3,5-difluorophenyl)ethyl)pyrrolidine-2-carboxamide], the inhibition at 2 µM in data set [1] worked out at 10%. Moreover, the CC50 at 5 days in data set [2] is 38300 nM.

`CC(C)(C)OC(=O)N1[C@@H](C(=O)N[C@@H](Cc2cc(F)cc(F)c2)c2ncccc2-c2ccc(F)c(C(N)=O)c2)CC[C@H]1c1ccccc1` [Example 158, (2R,5S)-tert-butyl 2-((S)-1-(3-(3-carbamoyl-4-fluorophenyl)pyridin-2-yl)-2-(3,5-difluorophenyl)ethylcarbamoyl)-5-phenylpyrrolidine-1-carboxylate]: in data set [1], the inhibition at 2 µM turned out to be 0%. This molecule showed a CC50 at 5 days in data set [2] of 8500 nM.

Consider `NC(=O)c1cc(-c2cccnc2[C@H](Cc2cc(F)cc(F)c2)NC(=O)Cn2nc(C(F)(F)Oc3ccccc3)c3c2CCCC3)ccc1F` [Example 159, (S)-5-(2-(1-(2-(3-(difluoro(phenoxy)methyl)-4,5,6,7-tetrahydro-1H-indazol-1-yl)acetamido)-2-(3,5-difluorophenyl)ethyl)pyridin-3-yl)-2-fluorobenzamide], for which, in data set [1], the inhibition at 2 µM turned out to be 84%. In data set [2], this molecule came in with a 50% cytotoxic concentration (CC50) at 5 days of 19100 nM.

`NC(=O)c1cc(-c2cccnc2[C@H](Cc2cc(F)cc(F)c2)NC(=O)Cn2nc3c(c2C(F)F)CC2CC32)ccc1F` (stereo partly drawn) [Example 160, 5-(2-((1S)-1-(2-(3-(difluoromethyl)-4,4-a,5,5a-tetrahydro-2H-cyclopropa[4,5]cyclopenta[1,2-c]pyrazol-2-yl)acetamido)-2-(3,5-difluorophenyl)ethyl)pyridin-3-yl)-2-fluorobenzamide]: the inhibition at 2 µM in data set [1] was 45%. The molecule also yielded a CC50 at 5 days in data set [2] of 29300 nM.

For the molecule `CC(C)(C)OC(=O)N1C[C@@H](Oc2ccccc2)C[C@H]1C(=O)N[C@@H](Cc1cc(F)cc(F)c1)c1ncccc1-c1ccc(F)c(C(N)=O)c1` [Example 161, (2S,4S)-tert-butyl 2-((S)-1-(3-(3-carbamoyl-4-fluorophenyl)pyridin-2-yl)-2-(3,5-difluorophenyl)ethylcarbamoyl)-4-phenoxypyrrolidine-1-carboxylate], the inhibition at 2 µM in data set [1] came to 0%. In data set [2], this molecule registered a CC50 at 5 days of 9310 nM.

For the molecule `NC(=O)c1cc(-c2cccnc2[C@H](Cc2cc(F)cc(F)c2)NC(=O)COc2ccccc2)ccc1F` [Example 164, (S)-5-(2-(2-(3,5-difluorophenyl)-1-(2-phenoxyacetamido)ethyl)pyridin-3-yl)-2-fluorobenzamide], the inhibition at 2 µM in data set [1] is 2%. The molecule also returned a CC50 at 5 days in data set [2] of 29900 nM.

Regarding `NC(=O)c1cc(-c2cccnc2[C@H](Cc2cc(F)cc(F)c2)NC(=O)[C@@H]2C[C@H](Oc3ccccc3)CN2)ccc1F` [Example 165, (2S,4S)—N—((S)-1-(3-(3-carbamoyl-4-fluorophenyl)pyridin-2-yl)-2-(3,5-difluorophenyl)ethyl)-4-phenoxypyrrolidine-2-carboxamide], in data set [1], the inhibition at 2 µM is 0%. Besides, the CC50 at 5 days in data set [2] is 52500 nM.

By inhibition is commonly meant the relative decrease from the control value, in per cent. As usually defined, the CC50 is the concentration giving 50% cytotoxicity. Usually % inhibition stands for the percentage by which the read-out fell short of the control. Higher therefore signals strong suppression.

(Values after patent US9540343B2 (Gilead Sciences, Inc., priority 2011, dated 2017).)
